Laboratory results as given in US20110105554A1, “MEANS FOR TREATING MYOSIN-RELATED DISEASES” (KINARIS BIOMEDICALS GMBH, priority 2007, published 2011).
Where “and” joins values, the source holds several entries; their conditions need not be identical. Equal values may be shown once.

Legend:
[1] = tested on: skinned muscle fibre preparations from rabbit psoas muscle; test: Isometric force measurement on skinned muscle fibres
Description: To test the effect of PBP on fully assembled myofilament arrays, we examined the contractile properties of skinned muscle fibre preparations from rabbit psoas muscle. Pentabromopseudilin leads to a more than 4-fold reduction in isometric force development of skinned muscle fibre preparations from rabbit psoas muscle. The Ki is in the same range as that determined for actomyosin ATPase activity. (FIG. 12)

[2] = Development toxicity testing on medaka embryos; details: medaka, in vivo
Procedure: (a) KIN-43 in concentrations between 0.5 μM and 100 μM were incubated for 48 h with 20 medaka embryos per concentration. […] (b) Light microscopy image of embryo after 48 h in the absence of KIN-43.
We are using a library of common organic molecules and functional groups and are applying an empirical force field description of the nonbonding interactions between a ligand and the binding site in order to build up de novo compounds with spatial and electrostatic properties complementary to the allosteric binding site.

Dictyostelium myosin-2 = target: T1, Dictyostelium myosin-2 (Dictyostelium discoideum, UniProt P08799, C312Y/S249N); test: Actin-activated ATPase activity (NADH-coupled assay), Dictyostelium myosin-2; format: biochemical
T1 construct: comprising amino acids 1-698, 1-765, and 1-839 respectively; made in house
Procedure: (§1) Based on the structure of the myosin-2 motor domain with bound PBP, we performed molecular modeling studies to elucidate the specificity of PBP-binding to myosins from different classes. […] To test the predictions from the modeling studies, we determined actin-activated ATPase activities in the presence of 0 to 150 μM PBP with rabbit skeletal myosin-2 heavy meromyosin (HMM), myosin-5a isolated from chicken brain, and recombinant Dictyostelium myosin class-1, 2 and 5 motor-domain constructs (FIG. 9a). […] The concentrations of PBP required for half-maximal inhibition of the different myosin motors was calculated from fitting the data to hyperbolae. […] To determine the extend to which PBP impairs the coupling between the actin- and nucleotide-binding sites of myosin, we measured the ATP turn-over rates of Dictyostelium myosin-2 and myosin-5b motor domain constructs over the range from 0 to 50 μM F-actin in the absence and presence of 25 μM PBP.
(§2) Values for the rate of maximum ATP turnover (kcat), the concentration of F-actin at which half-maximal activation is achieved (Kapp), and the apparent second order rate constant for actin binding (kcat/Kapp) were estimated from a fit of the data to a hyperbolic function. kcat/Kapp is a direct measure of the coupling efficiency between actin and nucleotide binding and can be determined from the initial slope at F-actin concentrations much smaller than Kapp. […] ATP turn-over rates of Dictyostelium myosin-2 (◯) and Dictyostelium myosin-5b (▪) at increasing F-actin concentrations in the absence (filled symbols) and presence (open symbols) of 25 μM pentabromopseudilin (FIG. 9b):
(§3) Protein preparation. Rabbit fast skeletal muscle heavy meromyosin (HMM) was prepared as described by Kron and Spudich^9. Motor domain constructs of myosin-1E, myosin-2, and myosin-5b from Dictyostelium discoideum comprising amino acids 1-698, 1-765, and 1-839 respectively, were prepared as described previouslyl^10-12. Myosin-5a heavy meromyosin from chicken brain was provided by Dr. T. Scholz (Hannover Medical School, Germany) and F-actin was prepared as described by Lehrer and Kerwar^13.
(§4) Steady-state kinetics. Basal and actin-activated Mg^2+-ATPase activities were measured with the NADH-coupled assay^19 in a buffer containing 25 mM HEPES, 25 mM KCl, and 4 mM MgCl2, 0.5 mM DTT at pH 7.0 in the presence of 1 mM ATP at 25° C. PBP was added to the reaction mixture in the absence of nucleotide and incubated for 20 minutes before the reaction was started by the addition of ATP. NADH oxidation was followed using the change in absorption at 340 nm in a Beckman DU-800 spectrophotometer.

chicken myosin-5a [3] = target: T2, chicken myosin-5a (Gallus gallus, UniProt Q02440); test: In vitro motility assay (actin filament sliding), myosin-5a; format: biochemical; details: 10 μM PBP
Procedure: (b) Inhibition of chicken myosin-5a by PBP in the in vitro motility assay. The histograms show the average sliding velocity of Rh/Ph-labeled actin filaments in the absence and presence of 10 μM PBP. Myosin-5a moves actin filaments with an average velocity of 0.6 μm/s±0.05 (dark bars); addition of 10 μM PBP into the same flow cell decreases the average sliding velocity to 0.013 μm/s±0.002 (light grey bars).
The extent and order of isoform-specific differences in the potency of the inhibitor were additionally confirmed by the results of in vitro motility assays). […] (FIG. 11a) Myosin-5a moves actin filaments with an average velocity of 0.6 μm/s±0.05 (dark bars); addition of 10 μM PBP into the same flow cell lead to a 46-fold reduction of the average sliding velocity to 0.013 μm/s±0.002 (light grey bars).
Direct functional Assays. Actin-sliding motility was performed at 25° C. using an Olympus IX81 inverted fluorescence microscope. Experimental flow cells were constructed using bovine serum albumin (0.5 mg/ml in assay buffer)-coated glass slides and nitrocellulose-coated coverslips. Myosins were actin affinity-purified immediately before use, to remove rigor heads^20. […] Average sliding velocity was determined from the Gaussian distribution of automatically tracked actin filaments using DiaTrack 3.0 and Origin 7.0.

myosin-2 = format: biochemical; details: 100 μM PBP
Procedure: Actin-sliding motility was performed at 25° C. using an Olympus IX81 inverted fluorescence microscope. Experimental flow cells were constructed using bovine serum albumin (0.5 mg/ml in assay buffer)-coated glass slides and nitrocellulose-coated coverslips. Myosins were actin affinity-purified immediately before use, to remove rigor heads^20. Sliding movement was started by adding assay buffer containing 4 mM ATP, 10 mM DTT, 0.5 mg/ml bovine serum albumin, anti-fade solution, and 0.5% methylcellulose to the flow cell. Average sliding velocity was determined from the Gaussian distribution of automatically tracked actin filaments using DiaTrack 3.0 and Origin 7.0.

Dictyostelium myosin-5b = target: T3, Dictyostelium myosin-5b (Dictyostelium discoideum, UniProt P54697); test: Actin-activated ATPase activity (NADH-coupled assay), Dictyostelium myosin-5b; format: biochemical
T3 construct: comprising amino acids 1-698, 1-765, and 1-839 respectively; made in house
Procedure: as §1, §2, §3, §4

chicken myosin-5a [4] = target: T2, chicken myosin-5a; test: Actin-activated ATPase activity (NADH-coupled assay), chicken myosin-5a; format: biochemical
Procedure: as §1
Protein preparation. Rabbit fast skeletal muscle heavy meromyosin (HMM) was prepared as described by Kron and Spudich^9. […]
Steady-state kinetics. Basal and actin-activated Mg^2+-ATPase activities were measured with the NADH-coupled assay^19 in a buffer containing 25 mM HEPES, 25 mM KCl, and 4 mM MgCl2, 0.5 mM DTT at pH 7.0 in the presence of 1 mM ATP at 25° C. […]

T3 sequence (P54697 1-839): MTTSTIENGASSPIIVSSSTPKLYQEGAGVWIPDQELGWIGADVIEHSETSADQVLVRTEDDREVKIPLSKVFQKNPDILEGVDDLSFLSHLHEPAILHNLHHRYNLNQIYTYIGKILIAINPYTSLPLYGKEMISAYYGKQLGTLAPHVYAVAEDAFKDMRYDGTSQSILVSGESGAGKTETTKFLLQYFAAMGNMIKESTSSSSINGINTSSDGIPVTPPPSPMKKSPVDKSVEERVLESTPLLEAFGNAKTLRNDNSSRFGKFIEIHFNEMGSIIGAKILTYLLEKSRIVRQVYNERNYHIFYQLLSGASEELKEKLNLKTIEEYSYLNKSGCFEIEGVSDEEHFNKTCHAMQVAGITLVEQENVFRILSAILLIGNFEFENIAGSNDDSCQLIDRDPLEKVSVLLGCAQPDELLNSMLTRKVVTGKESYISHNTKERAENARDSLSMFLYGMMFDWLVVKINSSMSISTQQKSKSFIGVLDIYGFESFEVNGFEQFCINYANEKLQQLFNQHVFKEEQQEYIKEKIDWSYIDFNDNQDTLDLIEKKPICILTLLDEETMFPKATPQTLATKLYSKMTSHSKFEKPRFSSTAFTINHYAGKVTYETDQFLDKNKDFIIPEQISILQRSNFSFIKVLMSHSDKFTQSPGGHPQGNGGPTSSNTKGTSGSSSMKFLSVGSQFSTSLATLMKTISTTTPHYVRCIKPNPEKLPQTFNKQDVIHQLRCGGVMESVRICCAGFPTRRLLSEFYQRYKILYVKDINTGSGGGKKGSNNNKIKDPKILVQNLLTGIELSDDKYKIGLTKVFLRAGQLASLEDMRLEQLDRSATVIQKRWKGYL
T2 sequence (Q02440 1-764): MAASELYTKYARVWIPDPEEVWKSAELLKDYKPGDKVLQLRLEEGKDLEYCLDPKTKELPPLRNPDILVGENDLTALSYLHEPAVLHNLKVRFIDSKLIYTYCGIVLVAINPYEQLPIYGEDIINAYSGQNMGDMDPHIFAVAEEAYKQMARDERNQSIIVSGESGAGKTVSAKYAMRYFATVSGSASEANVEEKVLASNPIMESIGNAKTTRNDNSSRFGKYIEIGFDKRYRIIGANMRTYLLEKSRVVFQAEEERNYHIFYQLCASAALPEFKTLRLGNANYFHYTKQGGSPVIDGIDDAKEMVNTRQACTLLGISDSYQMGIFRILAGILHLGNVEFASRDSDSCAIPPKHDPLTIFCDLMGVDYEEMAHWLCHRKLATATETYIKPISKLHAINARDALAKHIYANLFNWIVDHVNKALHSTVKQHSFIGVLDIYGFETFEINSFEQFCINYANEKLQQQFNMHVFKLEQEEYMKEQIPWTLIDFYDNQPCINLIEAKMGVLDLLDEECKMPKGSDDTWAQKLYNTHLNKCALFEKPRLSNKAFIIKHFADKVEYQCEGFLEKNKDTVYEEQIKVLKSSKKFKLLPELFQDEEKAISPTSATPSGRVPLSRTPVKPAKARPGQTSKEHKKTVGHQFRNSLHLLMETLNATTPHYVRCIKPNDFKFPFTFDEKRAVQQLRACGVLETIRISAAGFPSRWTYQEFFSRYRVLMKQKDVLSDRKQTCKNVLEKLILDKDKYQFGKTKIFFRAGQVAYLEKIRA
T1 sequence (P08799 1-765 S249N/C312Y): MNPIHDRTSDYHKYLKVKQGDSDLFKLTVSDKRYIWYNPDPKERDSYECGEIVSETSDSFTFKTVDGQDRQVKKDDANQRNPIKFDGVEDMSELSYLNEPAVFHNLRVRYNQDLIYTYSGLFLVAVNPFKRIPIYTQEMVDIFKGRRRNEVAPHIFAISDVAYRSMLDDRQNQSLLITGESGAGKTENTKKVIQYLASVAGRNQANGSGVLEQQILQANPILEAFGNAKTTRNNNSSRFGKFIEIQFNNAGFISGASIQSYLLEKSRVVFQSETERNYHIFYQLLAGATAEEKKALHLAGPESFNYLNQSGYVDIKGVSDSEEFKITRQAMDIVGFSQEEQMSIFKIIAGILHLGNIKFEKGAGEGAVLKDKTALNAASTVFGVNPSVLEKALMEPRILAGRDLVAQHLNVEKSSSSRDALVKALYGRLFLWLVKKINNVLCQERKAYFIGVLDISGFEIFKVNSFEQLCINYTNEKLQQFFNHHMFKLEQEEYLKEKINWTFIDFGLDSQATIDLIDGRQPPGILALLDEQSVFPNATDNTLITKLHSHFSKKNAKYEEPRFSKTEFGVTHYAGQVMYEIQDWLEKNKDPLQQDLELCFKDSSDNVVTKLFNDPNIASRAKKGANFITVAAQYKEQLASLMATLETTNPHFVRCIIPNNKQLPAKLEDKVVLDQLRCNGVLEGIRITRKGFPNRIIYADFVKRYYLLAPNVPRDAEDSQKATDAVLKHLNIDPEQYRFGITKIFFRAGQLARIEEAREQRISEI
Description for mammalian myosin-5a: In this context, preferred selectivity means a more than 20-fold smaller IC50 value compared to fast skeletal muscle myosin-2 and other references myosins.

Oc1c(Br)cc(Br)cc1-c1[nH]c(Br)c(Br)c1Br [KIN-43]
fold reduction in isometric force development [1]: more than 4 fold
LC50 at 48 h [2]: 3 µM
preferred selectivity: fold smaller IC50 compared to fast skeletal muscle myosin-2 and other reference myosins (mammalian myosin-5a): more than 20 fold
Ki (Dictyostelium myosin-2): 24 µM
fold reduction in coupling (kcat/Kapp) (Dictyostelium myosin-2; 25 μM PBP): 3.7 fold
kcat/Kapp (apparent second order rate constant for actin binding) (Dictyostelium myosin-2; 25 μM PBP, 0 to 50 μM F-actin, 0.037 without): 10000 M⁻¹ s⁻¹
ATPase activity at 30 μM F-actin in the presence of inhibitor (Dictyostelium myosin-2; >100 μM PBP, 0.7 s^−1 without): 0.02 s⁻¹
fold reduction of the average sliding velocity (chicken myosin-5a [3]): 46 fold
average sliding velocity of actin filaments (chicken myosin-5a [3]; 0.6 μm/s without): 0.013 μm/s
fold reduction in the average gliding velocity (myosin-2): 2-to-3 fold
fold weaker coupling (kcat/Kapp) (Dictyostelium myosin-5b; 25 μM PBP): 26 fold
kcat/Kapp (apparent second order rate constant for actin binding) (Dictyostelium myosin-5b; 25 μM PBP, 0 to 50 μM F-actin, 0.32 without): 12000 M⁻¹ s⁻¹
ATPase activity at 30 μM F-actin in the presence of inhibitor (Dictyostelium myosin-5b; >100 μM PBP, 5.5 s^−1 without): 0.05 s⁻¹
Ki (Dictyostelium myosin-5b; Ki, half-maximal inhibition of actin-activated ATPase activity, 0 to 150 μM PBP, hyperbolic fit): 19.3 µM and 19.1 µM
fold decrease in kcat (Dictyostelium myosin-5b; class-5 myosins): approximately 8 fold
fold increase in Kapp (Dictyostelium myosin-5b; class-5 myosins): more than 25 fold
ATPase activity at 30 μM F-actin in the presence of inhibitor (chicken myosin-5a [4]): 0.34 s⁻¹
Ki (chicken myosin-5a [4]): 1.19 µM
